Assays:
[1] = system: human H292 NSCLC tumors; assay: Animal models of lung cancer (H292 NSCLC xenograft); assay type: in vivo, nude mice
Procedure: (§1) Nude mice were randomized into 4 groups of 10 animals each based on body weight and xenografted subcutaneously in the right flank with H292 cells (2×10^6 cells). Drug treatment was started immediately after xenografting and continued for 35 days (5 animals of each group) or 55 days (remaining 5 animals). […] Tumor sizes were measured periodically for 35 days (FIG. 1A). Animals #1-5 of each group were sacrificed after 35 days of treatment and gastrocnemus muscles were determined (FIG. 10). The body weights and overall appearance of animals #6 through #10 from each group were followed for an extended period (FIG. 1B and FIG. 1D). To appropriately show the overall health of these animals, pictures were taken from their tumor-free left flank on day 55 (FIG. 1D).

[2] = system: cell lines derived from a variety of tumor types; assay: Tumor growth inhibition in cell lines; assay type: cell-based
[3] = Repeated oral dose study for 4 weeks followed by recovery, rats; assay type: in vivo; details: repeated oral dose 4 weeks
[4] = Ames genotoxicity test
[5] = target: RAR γ (Homo sapiens, UniProt P13631)
Procedure: (§2) RXR EC90:RAR EC10 ratio is calculated by taking the inverse of the RXR EC90 α, β and γ values (nM) divided by the corresponding inverse of the RAR EC10 α, β and γ values (nM). For example, the RXR EC90:RAR EC10 ratio is determined by dividing RAR EC10 by RXR EC90 for α, β and γ. Thus, a value is obtained for all three receptors, referred to herein as (RXR EC90:RAR EC10 ratio)α, (RXR EC90:RAR EC10 ratio)β and (RXR EC90:RAR EC10 ratio)γ for α β and γ, respectively. For example, (RXR EC90:RAR EC10 ratio), is determined by dividing RAR EC10α by RXRα EC90. The mean RXR EC90:RAR EC10 ratio is the average of all three values. An example is provided below in Tables 1A and 1B.

[6] = target: RAR α (Homo sapiens, UniProt P10276)
Chain of RAR α (P10276 whole entry): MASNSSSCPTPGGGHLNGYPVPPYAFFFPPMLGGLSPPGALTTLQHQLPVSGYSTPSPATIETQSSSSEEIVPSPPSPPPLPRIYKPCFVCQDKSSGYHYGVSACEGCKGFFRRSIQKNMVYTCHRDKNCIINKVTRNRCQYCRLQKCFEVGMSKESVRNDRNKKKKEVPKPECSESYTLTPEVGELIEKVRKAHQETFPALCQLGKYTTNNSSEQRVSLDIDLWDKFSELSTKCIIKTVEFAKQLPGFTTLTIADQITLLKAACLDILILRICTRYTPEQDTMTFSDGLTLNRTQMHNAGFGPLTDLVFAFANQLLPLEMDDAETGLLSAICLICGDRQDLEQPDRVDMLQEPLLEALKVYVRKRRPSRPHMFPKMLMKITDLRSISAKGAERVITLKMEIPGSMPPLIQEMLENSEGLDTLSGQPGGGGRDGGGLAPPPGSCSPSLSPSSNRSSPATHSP
Procedure: as §2

[7] = target: RAR β (Homo sapiens, UniProt P10826)
Procedure: as §2

[8] = system: cancer-induced cachexia; assay: Models of cancer-induced cachexia; assay type: in vivo
Procedure: as §1

[9] = Repeated oral dose study for 4 weeks followed by recovery, dogs; assay type: in vivo; details: repeated oral dose 4 weeks
[10] = system: RXR; assay: RXR pan-agonist potency; assay type: cell-based
[11] = Rat micronucleus genotoxicity assay; assay type: in vivo
[12] = system: mouse lymphoma TK; assay: Mouse lymphoma TK genotoxicity assay; assay type: cell-based
[13] = system: breast cancer; assay: Animal models of breast cancer; assay type: in vivo
[14] = system: NSCLC; details: pivotal Phase III; cited from earlier work
[15] = target: RXR β (Homo sapiens, UniProt P28702); assay: cell-based; details: read-out: RXR EC90 β
Chain of RXR β (P28702 whole entry): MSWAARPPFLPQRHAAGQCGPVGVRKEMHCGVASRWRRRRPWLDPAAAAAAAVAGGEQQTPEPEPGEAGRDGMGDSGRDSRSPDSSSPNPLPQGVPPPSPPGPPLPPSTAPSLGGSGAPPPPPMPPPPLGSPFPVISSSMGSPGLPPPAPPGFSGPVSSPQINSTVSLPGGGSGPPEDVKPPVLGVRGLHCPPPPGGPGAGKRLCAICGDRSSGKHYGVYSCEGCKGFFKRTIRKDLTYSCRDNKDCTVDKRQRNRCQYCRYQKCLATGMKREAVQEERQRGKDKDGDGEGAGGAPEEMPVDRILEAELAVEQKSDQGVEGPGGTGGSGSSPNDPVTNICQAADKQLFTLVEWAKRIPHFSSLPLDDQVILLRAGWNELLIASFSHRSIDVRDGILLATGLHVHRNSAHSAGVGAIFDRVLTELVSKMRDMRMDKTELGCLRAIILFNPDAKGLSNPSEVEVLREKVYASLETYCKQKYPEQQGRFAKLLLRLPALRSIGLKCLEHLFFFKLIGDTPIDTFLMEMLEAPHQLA
Procedure: as §2

Row | SMILES | tumor growth inhibition [1] | tumor growth inhibition [2] | severe toxic dose [3] [mg/m^2/d] | genotoxicity [4] | RAR EC10 γ [5] [nM] | RAR EC10 α [6] [nM] | RAR EC10 β [7] [nM] | body weight [8] | food consumption [8] | muscle and adipose tissue [8] | survival [8] | severe toxic dose [9] | EC50 [10] [nM] | genotoxicity [11] | genotoxicity [12] | tumor growth inhibition [13] | survival [14] | EC90 [15] [nM]
1 | CC(/C=C/[C@@H]1C[C@]1(C)c1ccc2c(c1)C(C)(C)CCC2(C)C)=C\C(=O)O [VTP 194204, 3,7-dimethyl-6(S),7(S)-methano,7-[1,1,4,4-tetramethyl-1,2,3,4-tetrahydron-aphth-7-yl]2(E), 4(E) heptadienoic acid] | tumor growth inhibitory effects | tumor growth inhibitory effects | […] | No genotoxicity | […] | 300 | […] | maintained body weight | improved food consumption | prevented loss of muscle and adipose tissue | prolonged survival | […] | […] | No genotoxicity | No genotoxicity | tumor growth inhibitory effects |  | 
2 | C=C(c1ccc(C(=O)O)cc1)c1cc2c(cc1C)C(C)(C)CCC2(C)C [TARGRETIN ®, bexarotene] |  |  |  |  |  |  |  |  |  |  |  |  |  |  |  |  | did not show increased survival | 100

From patent publication US10973788B2, “Treatment of cancer with specific RXR agonists” (Io Therapeutics, Inc., priority 2005, dated 2021)
